For eleven compounds, GI50 and TGI results are on record in PubChem BioAssay (NCI).

What all share (experiment): NCI anticancer screen, dose series, 48 h
In test [1] the test system is 786-0 renal.
Test [2] deals with BT-549 breast.
The subject of test [3] is KM12 colon.
Test [4] concerns NCI/ADR-RES ovarian.
Test [5] has as its system OVCAR-4 ovarian.
The test system of test [6] is OVCAR-8 ovarian.
Test [7] has as its system SK-MEL-2 melanoma.
Test [8] relates to SR leukemia.

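How tested: cells in 96-well plates exposed to compound for 48 hours at five concentrations. GI50 marks 50% less growth. TGI: total growth inhibition.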 Bounds are passed on as bounds.

On to `Cn1cc(C2=C(c3c4n(c5ccccc35)CC(CN)C4)C(=O)NC2=O)c2ccccc21` (configuration not stated), for which the GI50 was 3.64 µM in test [1]; 4.46 µM in test [2]; 3.46 µM in test [3]; 10.1 µM in test [4]; 2.33 µM in test [5]; 3.92 µM in test [6]. The GI50 in test [7] is 1.69 µM; in test [8] it was 1.74 µM. The TGI in test [1] amounted to 8.53 µM; in test [2], 10.5 µM; in test [3] it was 9.22 µM; in test [4] it was 25 µM; in test [5], 10.6 µM; in test [6], 8.93 µM. The TGI in test [7] was 5.35 µM; in test [8] it was 13.8 µM.
With `CN(C)CCCNC(=O)c1cc(NC(=O)CCNC(=O)c2ccc3c(c2)C(=O)c2ccccc2C3=O)cn1C`, the GI50 in test [1] is > 100 µM; in test [2], > 100 µM; in test [3], 40.8 µM; in test [4], > 100 µM; in test [6], > 100 µM; in test [7], > 100 µM. In addition, the GI50 in test [8] is 31 µM. For the same compound, the TGI in test [1], in test [2], in test [3], in test [4], in test [6] and in test [7] was > 100 µM in each case. Also, the TGI in test [8] came to 99.6 µM.
As for `CC(C)(C)C(=O)OCOP(=O)(OCOC(=O)C(C)(C)C)C1CCCN(OC(=O)c2ccccc2)C1=O` (configuration not stated), the GI50 is 0.61 µM in test [1]; 2.64 µM in test [2]; 0.549 µM in test [3]; 0.721 µM in test [4]; 3.56 µM in test [5]; 0.543 µM in test [6]. Moreover, the GI50 in test [7] was 1.99 µM. Further, the TGI in test [1] is 26.4 µM; in test [2] it was 17.9 µM; in test [3], 5.94 µM; in test [4], 7.76 µM; in test [5], > 100 µM; in test [6] it was 6.95 µM. The same compound gave a TGI in test [7] of 11.4 µM.
Turning to `C=CCCC(O)c1ccc(C(O)CCCCCCCCCCCC)o1` (configuration not stated), the GI50 is 17.6 µM in test [1]; 19.9 µM in test [2]; 21.7 µM in test [3]; 20.9 µM in test [4]; 30.9 µM in test [5]; 13.5 µM in test [6]. Moreover, the GI50 in test [7] was 28.6 µM. In addition, the TGI in test [1] worked out at 31.5 µM; in test [2], 42.2 µM; in test [3] it was 42.8 µM; in test [4], 45.8 µM; in test [5] it was 92.9 µM; in test [6], 30.3 µM. Also, in test [7], the TGI came to 89.4 µM.
Turning to `CCOc1cc(C=O)c2c(ccc3ccc(OC)c(OC)c32)c1OC`, the TGI was > 100 µM in test [1]; > 100 µM in test [2]; > 100 µM in test [3]; 81.5 µM in test [4]; > 100 µM in test [5]; > 100 µM in test [6]. Moreover, the TGI in test [7] is > 100 µM.
On to `O=C(CCc1nnc(-c2c(Cl)cccc2Cl)o1)c1nc2ccccc2[nH]1`, for which the GI50 was 10.7 µM in test [1]; 7.54 µM in test [2]; 3.16 µM in test [3]; 5.47 µM in test [4]; 5.93 µM in test [5]; 9.26 µM in test [6]. Besides, the GI50 in test [8] is 2.63 µM. Besides, the TGI in test [1] was 45.5 µM; in test [2] it was 92.4 µM; in test [3], 11 µM; in test [4], > 100 µM; in test [5] it was > 100 µM; in test [6], > 100 µM. This compound also came in with a TGI in test [8] of 15.2 µM.
Take `Cc1cc(Cl)ccc1NC(=O)/C(Cl)=C(/Cl)C(=O)O`: the TGI in test [1] is 51.7 µM; in test [2], 41.7 µM; in test [3], 82.8 µM; in test [4], 74.2 µM; in test [6] it was 34.2 µM; in test [8], 36.4 µM.
Regarding `C[As](C)Sc1ccnc(S[As](C)C)n1`, the GI50 was 5.36 µM in test [1]; 3.78 µM in test [2]; 9.52 µM in test [3]; 7.72 µM in test [4]; 3.44 µM in test [5]; 5.51 µM in test [6]. Also, the TGI in test [1] is > 40.5 µM; in test [2] it was 18.2 µM; in test [3], > 51.9 µM; in test [4], > 25.9 µM; in test [5] it was 36.3 µM; in test [6], > 40.1 µM.
Regarding `COc1cc(-c2cc(/C=C/C(=O)c3ccc4c(c3)OCO4)[nH]n2)cc(OC)c1OC`, the GI50 in test [1] was 2.33 µM; in test [4] it was 4.23 µM; in test [5] it was 3.8 µM; in test [6], 2.85 µM; in test [7], 10.3 µM; in test [8], 0.552 µM. For the same compound, the TGI in test [1] was 5.82 µM; in test [4], > 100 µM; in test [5], > 100 µM; in test [6], 11.1 µM; in test [7], 28.9 µM; in test [8], > 100 µM.
In the case of `O=C(N/N=C/c1coc2ccc(Cl)cc2c1=O)c1ccncc1`, the GI50 is 55.3 µM in test [1]; 71.3 µM in test [2]; 58.4 µM in test [3]; 35.5 µM in test [4]; > 100 µM in test [5]; 35.6 µM in test [6]. In addition, the GI50 in test [7] is 74.3 µM. Also, the TGI in test [1], in test [2], in test [3], in test [4], in test [5] and in test [6] was > 100 µM throughout. Moreover, in test [7], the TGI is > 100 µM.
In the case of `COc1ccc(S(=O)(=O)N2CCN(C(=O)OCc3ccccc3)CC2C(=O)NO)cc1` (configuration not stated), the GI50 in test [1], in test [2], in test [3], in test [4], in test [5] and in test [6] was > 25 µM throughout. In test [7], the GI50 is > 25 µM. For the same compound, the TGI in test [1], in test [2], in test [3], in test [4], in test [5] and in test [6] was > 25 µM in each case. For the same compound, in test [7], the TGI is > 25 µM.
